Source: PubChem BioAssay AID308 (DTP/NCI, 2004)
Where “and” joins values, the source holds several entries; their conditions need not be identical. Equal entries are not always repeated. Inconclusive results and toxic doses are left out.

Tested on: BDF1 mice, L1210 6-MP/6-TG resistant leukemia ip, survival T/C
Test: NCI In Vivo Anticancer Drug Screen. Data for tumor model L1210 Leukemia resistant to 6-MP and 6-Thioguanine; NSC 755, NSC 752 (intraperitoneal) in B6D2F1 (BDF1) mice
Conditions: endpoint: mean survival time, higher = longer survival
Procedure: The antitumor activity of compounds was measured in mice bearing transplantable tumors. Survival or tumor size were measured and the results are expressed as the measurement made in the treated group (T) divided by the measurement made in the vehicle treated control group (C). The tumor model used in this assay is L1210 Leukemia resistant to 6-MP and 6-Thioguanine; NSC 755, NSC 752 (intraperitoneal) in B6D2F1 (BDF1) mice

[1] = dose: 50.0 mg/kg/injection, schedule: Q01DX Z (ip), vehicle: other
[2] = dose: 62.5 mg/kg/injection, schedule: Q01DX Z (ip), vehicle: carboxymethylcellulose (CMC)
[3] = dose: 125.0 mg/kg/injection, schedule: Q01DX Z (ip), vehicle: carboxymethylcellulose (CMC)
[4] = dose: 250.0 mg/kg/injection, schedule: Q01DX Z (ip), vehicle: carboxymethylcellulose (CMC)
[5] = dose: 12.5 mg/kg/injection, schedule: Q01DX015 (ip), vehicle: other
[6] = dose: 25.0 mg/kg/injection, schedule: Q01DX Z (ip), vehicle: saline
[7] = dose: 12.5 mg/kg/injection, schedule: Q01DX Z (ip), vehicle: carboxymethylcellulose (CMC)
[8] = dose: 25.0 mg/kg/injection, schedule: Q01DX Z (ip), vehicle: carboxymethylcellulose (CMC)
[9] = dose: 50.0 mg/kg/injection, schedule: Q01DX Z (ip), vehicle: carboxymethylcellulose (CMC)
[10] = dose: 93.0 mg/kg/injection, schedule: Q01DX Z (ip), vehicle: carboxymethylcellulose (CMC)
[11] = dose: 187.0 mg/kg/injection, schedule: Q01DX Z (ip), vehicle: carboxymethylcellulose (CMC)
[12] = dose: 12.5 mg/kg/injection, schedule: Q01DX015 (ip), vehicle: carboxymethylcellulose (CMC)
[13] = dose: 25.0 mg/kg/injection, schedule: Q01DX015 (ip), vehicle: carboxymethylcellulose (CMC)
[14] = dose: 100.0 mg/kg/injection, schedule: Q01DX Z (ip), vehicle: saline

CCCC(=O)OCC1OC(n2cnc3c(=S)nc[nH]c32)C(OC(=O)CCC)C1OC(=O)CCC (stereo not drawn)
T/C (dose: 6.25 mg/kg/injection, schedule: Q01DX Z (ip), vehicle: other): 99 % of control
T/C (dose: 12.5 mg/kg/injection, schedule: Q01DX Z (ip), vehicle: other): 92 % of control
T/C (dose: 25.0 mg/kg/injection, schedule: Q01DX009 (ip), vehicle: Klucel (hydroxypropylcellulose) (HPC)): 92 % of control
T/C (dose: 25.0 mg/kg/injection, schedule: Q01DX Z (ip), vehicle: other): 90 % of control and 92 % of control
T/C (dose: 50.0 mg/kg/injection, schedule: Q01DX009 (ip), vehicle: Klucel (hydroxypropylcellulose) (HPC)): 98 % of control
T/C [1]: 96 % of control
T/C (dose: 100.0 mg/kg/injection, schedule: Q01DX009 (ip), vehicle: Klucel (hydroxypropylcellulose) (HPC)): 92 % of control
T/C (dose: 100.0 mg/kg/injection, schedule: Q01DX Z (ip), vehicle: other): 90 % of control

OCC1OC(n2cnc3c(Cl)ncnc32)C(O)C1O (stereo not drawn)
T/C [2]: 91 % of control
T/C [3]: 89 % of control
T/C [4]: 95 % of control
T/C (dose: 500.0 mg/kg/injection, schedule: Q01DX Z (ip), vehicle: carboxymethylcellulose (CMC)): 95 % of control
T/C (dose: 1000.0 mg/kg/injection, schedule: Q01DX001 (ip), vehicle: carboxymethylcellulose (CMC)): 92 % of control and 97 % of control
T/C (dose: 1500.0 mg/kg/injection, schedule: Q01DX001 (ip), vehicle: carboxymethylcellulose (CMC)): 94 % of control and 99 % of control
T/C (dose: 2000.0 mg/kg/injection, schedule: Q01DX001 (ip), vehicle: carboxymethylcellulose (CMC)): 94 % of control and 97 % of control

O=c1[nH]cnc2n[nH]nc12
T/C (dose: 278.0 mg/kg/injection, schedule: Q01DX009 (ip), vehicle: saline with Tween-80): 99 % of control
T/C (dose: 423.0 mg/kg/injection, schedule: Q01DX009 (ip), vehicle: Klucel (hydroxypropylcellulose) (HPC)): 96 % of control
T/C (dose: 423.0 mg/kg/injection, schedule: Q01DX009 (ip), vehicle: saline with Tween-80): 98 % of control
T/C (dose: 632.0 mg/kg/injection, schedule: Q01DX009 (ip), vehicle: Klucel (hydroxypropylcellulose) (HPC)): 100 % of control
T/C (dose: 632.0 mg/kg/injection, schedule: Q01DX009 (ip), vehicle: saline with Tween-80): 98 % of control
T/C (dose: 948.0 mg/kg/injection, schedule: Q01DX009 (ip), vehicle: saline with Tween-80): 94 % of control

O=C(OCC1OC(n2cnc3c(=S)nc[nH]c32)C(OC(=O)c2ccc([N+](=O)[O-])cc2)C1OC(=O)c1ccc([N+](=O)[O-])cc1)c1ccc([N+](=O)[O-])cc1 (stereo not drawn)
T/C (dose: 6.25 mg/kg/injection, schedule: Q01DX015 (ip), vehicle: other): 94 % of control
T/C [5]: 105 % of control
T/C (dose: 25.0 mg/kg/injection, schedule: Q01DX015 (ip), vehicle: other): 88 % of control
T/C [1]: 92 % of control
T/C (dose: 400.0 mg/kg/injection, schedule: Q01DX Z (ip), vehicle: other): 86 % of control

Nc1nc(=S)c2ncn(C3OC(CO)CC3O)c2[nH]1 (stereo not drawn)
T/C (dose: 1.5 mg/kg/injection, schedule: Q01DX009 (ip), vehicle: other): 99 % of control
T/C (dose: 3.0 mg/kg/injection, schedule: Q01DX009 (ip), vehicle: other): 99 % of control
T/C (dose: 6.0 mg/kg/injection, schedule: Q01DX009 (ip), vehicle: other): 107 % of control
T/C [5]: 87 % of control

CCCNc1ncnc2[nH]ncc12
T/C [6]: 111 % of control

Cn1cnc2c(SCc3ccccc3)ncnc21
T/C [7]: 100 % of control
T/C [8]: 107 % of control
T/C [9]: 100 % of control
T/C [10]: 87 % of control
T/C (dose: 100.0 mg/kg/injection, schedule: Q01DX Z (ip), vehicle: carboxymethylcellulose (CMC)): 102 % of control
T/C [11]: 98 % of control
T/C [4]: 92 % of control

c1ccc(CNc2ncnc3[nH]ncc23)cc1
T/C (dose: 1.5 mg/kg/injection, schedule: Q01DX Z (ip), vehicle: carboxymethylcellulose (CMC)): 96 % of control
T/C (dose: 3.0 mg/kg/injection, schedule: Q01DX Z (ip), vehicle: carboxymethylcellulose (CMC)): 93 % of control
T/C (dose: 6.25 mg/kg/injection, schedule: Q01DX Z (ip), vehicle: carboxymethylcellulose (CMC)): 101 % of control
T/C [7]: 88 % of control
T/C [8]: 92 % of control
T/C [9]: 93 % of control

Nc1nc(SCc2ccccc2)c2ncn(C3OC(CO)CC3O)c2n1 (stereo not drawn)
T/C (dose: 18.75 mg/kg/injection, schedule: Q01DX009 (ip), vehicle: other): 100 % of control
T/C (dose: 37.5 mg/kg/injection, schedule: Q01DX009 (ip), vehicle: other): 97 % of control
T/C (dose: 75.0 mg/kg/injection, schedule: Q01DX009 (ip), vehicle: other): 99 % of control
T/C (dose: 150.0 mg/kg/injection, schedule: Q01DX009 (ip), vehicle: other): 91 % of control

S=P(N1CCOCC1)(N1CC1)N1CC1
T/C (dose: 1.87 mg/kg/injection, schedule: Q01DX Z (ip), vehicle: carboxymethylcellulose (CMC)): 90 % of control
T/C (dose: 2.5 mg/kg/injection, schedule: Q01DX Z (ip), vehicle: carboxymethylcellulose (CMC)): 93 % of control
T/C (dose: 3.75 mg/kg/injection, schedule: Q01DX Z (ip), vehicle: carboxymethylcellulose (CMC)): 151 % of control
T/C (dose: 5.0 mg/kg/injection, schedule: Q01DX Z (ip), vehicle: carboxymethylcellulose (CMC)): 117 % of control
T/C (dose: 7.5 mg/kg/injection, schedule: Q01DX Z (ip), vehicle: carboxymethylcellulose (CMC)): 116 % of control
T/C [7]: 109 % of control
T/C (dose: 15.0 mg/kg/injection, schedule: Q01DX Z (ip), vehicle: carboxymethylcellulose (CMC)): 118 % of control

C[C@H](N)C(=O)N[C@@H]1[C@H]2C(=C(O)C[C@@H](O)[C@@H]2O)C(=O)O[C@@H]1C
T/C (dose: 330.0 mg/kg/injection, schedule: Q01DX015 (ip), vehicle: carboxymethylcellulose (CMC)): 152 % of control
T/C (dose: 500.0 mg/kg/injection, schedule: Q01DX Z (ip), vehicle: saline): 189 % of control
T/C (dose: 750.0 mg/kg/injection, schedule: Q01DX Z (ip), vehicle: saline): 185 % of control
T/C (dose: 2000.0 mg/kg/injection, schedule: Q01DX Z (ip), vehicle: saline): 100 % of control

COc1cc2c(c3c1c(=O)c1ccccc1n3C)C=CC(C)(C)O2
T/C (dose: 20.0 mg/kg/injection, schedule: Q01DX015 (ip), vehicle: carboxymethylcellulose (CMC)): 106 % of control
T/C (dose: 40.0 mg/kg/injection, schedule: Q01DX015 (ip), vehicle: carboxymethylcellulose (CMC)): 116 % of control

CCCn1cnc2c(=S)nc[nH]c21
T/C [12]: 97 % of control
T/C [13]: 95 % of control
T/C (dose: 50.0 mg/kg/injection, schedule: Q01DX015 (ip), vehicle: carboxymethylcellulose (CMC)): 101 % of control
T/C (dose: 100.0 mg/kg/injection, schedule: Q01DX015 (ip), vehicle: carboxymethylcellulose (CMC)): 96 % of control

O=C1C(NC(=O)C2CCCCC2)=C(N2CC2)C(=O)C(NC(=O)C2CCCCC2)=C1N1CC1
T/C (dose: 31.0 mg/kg/injection, schedule: Q01DX Z (ip), vehicle: carboxymethylcellulose (CMC)): 99 % of control
T/C [2]: 101 % of control
T/C [10]: 93 % of control
T/C [3]: 87 % of control
T/C [11]: 92 % of control
T/C [4]: 90 % of control

CCCSc1nc(N)nc2nc[nH]c12
T/C (dose: 12.0 mg/kg/injection, schedule: Q01DX Z (ip), vehicle: saline): 114 % of control
T/C [6]: 106 % of control
T/C (dose: 50.0 mg/kg/injection, schedule: Q01DX Z (ip), vehicle: saline): 107 % of control
T/C [14]: 103 % of control
T/C (dose: 150.0 mg/kg/injection, schedule: Q01DX Z (ip), vehicle: carboxymethylcellulose (CMC)): 91 % of control

CC1CCOS(=O)O1 (stereo not drawn)
T/C (dose: 12.5 mg/kg/injection, schedule: Q01DX Z (ip), vehicle: saline): 101 % of control
T/C [6]: 106 % of control
T/C (dose: 37.5 mg/kg/injection, schedule: Q01DX Z (ip), vehicle: saline): 97 % of control
T/C (dose: 75.0 mg/kg/injection, schedule: Q01DX Z (ip), vehicle: saline): 99 % of control
T/C [14]: 91 % of control

O=C(O)c1cc[c]([Hg][S]c2ncnc3nc[nH]c23)cc1
T/C [12]: 95 % of control
T/C [13]: 87 % of control
